Measured values as given in paper PMC12234328, “A naphthalimide derivative exerts potent antiplatelet and antithrombotic activities without a bleeding tendency” (Frontiers in Pharmacology, 2025).

Columns and labels:
[1] = tested on: human platelet suspensions stimulated with U46619; test: U46619-induced platelet aggregation; type: cell-based; settings: 5–50 μM, 1 μM U46619
From the text: This study received approval from the Taipei Medical University–Joint Institutional Review Board (TMU-JIRB-No. N202003148) and adhered to the principles of the Declaration of Helsinki. Informed consent was obtained from all volunteers before their participation. Human platelets were washed and prepared according to previously established methods ([Lu et al., 2019]). Whole blood was collected from healthy participants who had not taken any medications, including nonsteroidal anti-inflammatory drugs or aspirin, in the preceding 2 weeks. The blood was drawn into polypropylene tubes containing an acid citrate–dextrose solution (9:1, v/v). After mixing, the samples were centrifuged at 120 g for 10 min. The upper layer of platelet-rich plasma was collected and supplemented with prostaglandin E1 and heparin. Following further centrifugation at 500 g for 10 min, the platelet pellets were washed twice. The platelets were then resuspended in Tyrode’s solution containing 3.5 mg/mL bovine serum albumin (B.S.A.) to create platelet suspensions. The final Ca^2+ concentration of the platelet suspensions (3.6 × 10^8 cells/mL) was 1 mM.
Platelet aggregation was measured using a lumi-aggregometer (Payton, Scarborough, Canada) through the turbidimetric method ([Lu et al., 2019]). […] Subsequently, various agonists were added and platelet aggregation was then recorded for an additional 6 min. […]

[2] = tested on: GPVI signaling (Lyn, Fyn, PLCγ2, PKC substrate p47, Akt, MAPKs); test: Western blotting of GPVI signaling in collagen-stimulated platelets; type: cell-based, human; settings: collagen 1 μg/mL
Method: Western blotting was performed as described previously ([Lien et al., 2017]). Human platelet suspensions (3.6 × 10^8 cells/mL) were pretreated with compound 6 (2.5 and 5 μM) or 0.1% DMSO for 3 min and then treated with collagen for 6 min. After centrifugation, the platelet pellets were immediately resuspended in lysis buffer (200 μL) for 1 h. The supernatants were collected after centrifugation at 5,000 g for 5 min, and the protein extracts (80 μg) were subjected to 8%–12% sodium dodecylsulfate–polyacrylamide gel electrophoresis. The separated proteins were then electrotransferred onto a polyvinylidene fluoride membrane through a semidry transfer (Thermo Fisher, Waltham, MA, United States). The membrane was blocked with TBST (10 mM Tris-base, 100 mM NaCl, and 0.01% Tween-20) containing 5% B.S.A. for 1 h. After being washed three times, the membrane was incubated with various specific primary antibodies (1:1,000). Subsequently, the membrane was incubated with HRP-conjugated antibodies (1:5,000) for 1 h. Immunoreactive bands were developed using an electrochemiluminescence kit and analyzed using Celvin S (Biostep, Burkhardtsdorf, Germany).
FIGURE 5 Effects of compound 6 on the phosphorylation of Fyn, Lyn, PLCγ2, and PKC substrates (p47) induced by collagen in human platelets. (A–D) Washed platelets (3.6 × 10^8 cells/mL) were treated with compound 6 (2.5 and 5 μM) or DMSO before adding collagen (1 μg/mL). Proteins of these samples were separated by Western blotting. These targets (Fyn, Lyn, PLCγ2, and p47) were detected using specific antibodies. Data (A–D) are presented as means ± SEM (n = 5). **p < 0.01 and ***p < 0.001 compared with the resting group. #p < 0.05, ##p < 0.01, and ###p < 0.001 compared with the DMSO (solvent control) group.
FIGURE 6 Effects of compound 6 on the phosphorylation of Akt, and MAPKs induced by collagen in human platelets. Washed platelets (3.6 × 10^8 cells/mL) were treated with compound 6 (2.5 and 5 μM) or DMSO before adding collagen (1 μg/mL). […] Akt (A), p38 MAPK (B), ERK (C), and JNK (D) were detected using specific antibodies. […]

[3] = tested on: GPIIb–IIIa activation in human platelets; test: GPIIb-IIIa activation by flow cytometry (APC-PAC-1); type: cell-based; settings: 2.5 and 5 μM, collagen 1 μg/mL, n = 4
Method: Flow cytometry was performed as previously described ([Lien et al., 2017]). After 20 min of collagen stimulation, the human platelets were fixed and labeled with APC-conjugated PAC-1 antibodies for 30 min to detect the level of GPIIb–IIIa activation. After centrifugation and washing, the platelets were suspended in 1 mL of phosphate-buffered saline and analyzed using a CytoFLEX flow cytometer (Beckman Coulter Life Sciences, Indianapolis, IN, United States). In the flow cytometry setup, platelets were gated using forward scatter and side scatter, and the number of events was set to stop at 10,000 counts. All experiments were performed at least three times to ensure reliable results.
FIGURE 8 Effects of compound 6 on ATP release, calcium mobilization, and GPIIb–IIIa activation triggered by collagen in human platelets. Washed platelets (3.6 × 10^8 cells/mL) were treated with compound 6 (C6, 2.5 and 5 μM) or DMSO and then stimulated with collagen (1 μg/mL) to trigger ATP release (A), calcium mobilization (B), and GPIIb–IIIa activation (C) that were detected using luciferase/luciferin, Fura-2 AM, and APC–PAC1 antibodies, respectively. Data (A–C) are presented as means ± SEM (n = 4). **p < 0.01 and ***p < 0.001 compared with the resting group. #p < 0.05, ##p < 0.01, and ###p < 0.001 compared with the DMSO (solvent control) group.

## CCCCN1C(=O)c2cccc3c(NCCNC(=O)C45CC6CC(CC(C6)C4)C5)ccc(c23)C1=O [compound 6]
[1]
  Effect on U46619-induced platelet aggregation: did not significantly affect
[2]; 5 μM, n = 4
  Collagen-induced phosphorylation of Akt and MAPKs (ERK, p38 MAPK, JNK): could be diminished
[2]; 2.5 and 5 μM, n = 5
  Collagen-induced Lyn and Fyn phosphorylation: could be reversed
  Collagen-induced phosphorylation of PLCγ2 and the substrate of PKC (p47 proteins): significantly reduced
[3]
  GPIIb–IIIa activation: significantly reduce
